Test results from the NIST ThermoML archive (doi:10.1016/j.jct.2010.12.021).

Assays:
[1] = for viscosity / mass density: 101.33 kPa, Liquid; for viscosity: Falling or rolling sphere viscometry; for mass density: Vibrating tube method
[2] = Molar enthalpy of transition or fusion; details: Crystal; DSC

CCCCCC[n+]1cccc2ccccc21.O=S(=O)([N-]S(=O)(=O)C(F)(F)F)C(F)(F)F [1-hexylquinolinium bis(trifluoromethylsulfonyl)amide]
[1]
Details	mass density [kg/m3]	viscosity [mPa·s]
323.15 K	1365.94	100.1
328.15 K	1361.65	77.97
333.15 K	1357.35	61.78
338.15 K	1353.06	50.09
343.15 K	1348.77	41.08
348.15 K	1344.52	34.22

Details	Normal melting temperature [°C]
[1], Crystal, DTA	44.1

Details	Molar enthalpy of transition or fusion [kcal/mol]
[2]	15.2
